# According to US7671057B2, “Therapeutic agent for type II diabetes comprising protease-inhibiting compound” (Ono Pharmaceutical Co., Ltd., priority 2004, dated 2010):
# Tests used:
# Assay type in all cases: in vivo, mouse
# KK-A^y/Ta Jcl mice [1] = test: Glucose loading test after repeated administration for 14 days (Example 1)
# Description: As from Day 14 afterwards, the animals after being fasted for 18 hours or more were loaded orally with a glucose solution (2 g/kg, 10 mL/kg), whereby the blood-sugar levels were measured before, and 120 min. after, the said glucose loading. Each of the compounds was given orally to the animals 3 hours prior to the glucose loading, and the whole blood was drawn from each of the animals under anesthesia. Each of the said blood samples was centrifuged to yield a blood plasma, and the resultant blood plasmas were all preserved under freezing in a ultra-low-temperature freezer for subsequent use in the below-described measurements.
# The blood-sugar level, total cholesterol level (hereinafter referred to briefly as “TC level”) and triglyceride level (hereinafter referred to briefly as “TG level”) were detected individually in accordance with the hexokinase/G-6-PDH method, enzyme method and GPO/HDAOS method, and measured with use of Biochemical Auto-Analyzer (Model AU 400, manufactured by Olympus Co. of Japan). The plasma insulin level (hereinafter referred to briefly as “IRI level”) and the plasma glucagon level (hereinafter referred to briefly as “IRG level”) were detected individually with the ELISA method (Lebisinsulin Mouse Insulin Kit, produced by K.K. Shibayagi of Japan) and the ELISA method (YK090 Glucagon EIA Kit, produced by K.K. Yanaihara Kenkyuu-sho of Japan), followed by measurement with use of a plate reader (Immuno Mini NJ-2300, Nalge Nunc International K.K. of Japan).
# The blood-sugar, TC, TG, IRI and IRG levels and the body weight were expressed as a mean value±standard deviation as calculated for each group of animals. With reference to the significance test between the group treated through administration of the medium and each group treated through administration of the compound, the F test was effected to analyze the data and then, the Student's t-test and Aspin-Welch's t-test were used in cases where the variance between the two groups was determined to be equal and unequal, respectively. Referring to the significance level, less than 5% (p<0.05) was considered significant, and the significance level was expressed as divided into the two events of less than 1% (**: p<0.01) and less than 5% (*: p<0.05).
# [2] = Body weight after repeated administration for 14 days (Example 1); settings: after repeated administration for 14 consecutive days
# Description: Following the above-described single administration, the repeated, once-a-day forced oral administration of each compound was performed at the same daily dose for the total period of 14 consecutive days. […] The blood-sugar, TC, TG, IRI and IRG levels and the body weight were expressed as a mean value±standard deviation as calculated for each group of animals. With reference to the significance test between the group treated through administration of the medium and each group treated through administration of the compound, the F test was effected to analyze the data and then, the Student's t-test and Aspin-Welch's t-test were used in cases where the variance between the two groups was determined to be equal and unequal, respectively.
# KK-A^y/Ta Jcl mice [3] = test: Blood-sugar level, administration as admixture with food (Example 2)
# Description: KK-A^y/Ta Jcl Mice (male, 6- to 7-weeks aged, the number of cases; 8 animals) were treated through individual administration, in the form of an admixture with a food, of the Test Compound 2 (N-allyl-N-{(2E)-3-[4-({4-[amino(imino)methyl]phenoxy}-carbonyl)phenyl]-2-methyl-2-propenoyl}glycine/dimethane-sulfonate) of the present invention and the Control Compound 1 (5-(4-[2-(5-ethylpyridine-2-yl)ethoxy]benzyl)-1,3-thiazolidine-2,4-dione; pioglitazone) at the daily dose of 16.8 mg/100 g-food for 7 consecutive days, whereby the control group was fed with an ordinary food alone.
# Blood was drawn from the tail vein individually on the day (Day 1) preceding to administration of the Test Compound in the form of an admixture with a food, and on Days 2, 5, 7 and 14 of administration, and the blood samples were subjected to measurement of the blood-sugar level in accordance with the same procedure as described in Example 1, while, at the same time, the animals were weighed.
# KK-A^y/Ta Jcl mice [4] = test: Weights of pancreas, liver and kidney at autopsy (Example 3)
# Description: On Day 28 of administration of each compound in the form of an admixture with a food, furthermore, each animal after blood had been drawn from the tail vein was treated through individual forced oral administration of the Test Compound 2 in the form of the solutions individually consisting of 0.2, 0.6, 2.0 and 6.0 mg/mL-0.5% CMC suspension in each 5 mL/kg portion, as well as the Control Compound 1 in the form of the solutions individually consisting of 2.0 and 6 mg/mL-0.5% CMC suspension in each 5 ml/kg portion, followed by blood drawing 30 min. later and autopsy to thereby measure the weights of the pancreas, liver and kidney, whereby the control group was treated through administration of the 0.5% CMC suspension in the same portion.
# [5] = autopsy Day 28, Dose 16.8 (g/100 g-food)
smiles,measurement,setting,value
"CCc1ccc(CCOc2ccc(CC3SC(=O)NC3=O)cc2)nc1 (centres unmarked) [Control Compound 1, 5-{4-[2-(5-ethylpyridine-2-yl)ethoxy]benzyl}-1,3-thiazolidine-2,4-dione, reference compound]",Blood-sugar level before glucose loading,"KK-A^y/Ta Jcl mice [1]; after 14 days 30 mg/kg p.o., fasted, compound 3 hours prior to loading",156.9 ± 5.3 mg/dL
same,Blood-sugar level 120 Min. after glucose loading,"KK-A^y/Ta Jcl mice [1]; after 14 days 30 mg/kg p.o., glucose 2 g/kg orally",236.9 ± 19.6 mg/dL
same,Blood-sugar lowering action in the glucose loading test vs medium control group (in words),KK-A^y/Ta Jcl mice [1]; after repeated administration for 14 consecutive days,not observed to produce any significant difference
same,Effect on mouse body-weight vs control medium group (in words),[2],significant elevation in the body weight
same,Body weight,[2]; 30 mg/kg p.o.,31.7 ± 0.8 g
same,Blood-sugar level Day 2,KK-A^y/Ta Jcl mice [3]; 16.8 mg/100 g-food admixture,323.3 ± 15.7 mg/dL
same,Blood-sugar level Day 5,KK-A^y/Ta Jcl mice [3]; 16.8 mg/100 g-food admixture,350.0 ± 13.6 mg/dL
same,Blood-sugar level Day 7,KK-A^y/Ta Jcl mice [3]; 16.8 mg/100 g-food admixture,311.3 ± 19.4 mg/dL
same,Blood-sugar level Day 14,KK-A^y/Ta Jcl mice [3]; 16.8 mg/100 g-food admixture,270.5 ± 10.8 mg/dL
same,Blood-sugar level Day 1,"KK-A^y/Ta Jcl mice [3]; day preceding administration (baseline), 16.8 mg/100 g-food group",309.3 ± 21.2 mg/dL
same,Weight of the liver (in words),KK-A^y/Ta Jcl mice [4]; autopsy Day 28,raise further the weight of the liver
same,Weight Kidney,KK-A^y/Ta Jcl mice [4]; [5],0.49 ± 0.02 g
same,Weight Liver,KK-A^y/Ta Jcl mice [4]; [5],2.62 ± 0.11 g
same,Weight Pancreas,KK-A^y/Ta Jcl mice [4]; [5],0.36 ± 0.01 g
